Experimental data reported in patent US9051326B2, “Pyrazoline derivatives and their use as selective androgen receptor modulators” (NOVARTIS AG, priority 2011, dated 2015).

What follows are compounds tested against T1, androgen receptor (AR) (Homo sapiens, UniProt P10275) (assay: AR transcriptional activation luciferase reporter assay in C2C12 cells (Test 1)). Conditions: not given.
T1 construct: transfecting C2C12 cells with a plasmid containing full-length AR along with an AR response element linked to luciferase; expressed in transfected cells; host or cells: mouse myoblastic C2C12 cells (ATCC CRL-1772), transient transfection with Lipofectamine 2000
T1 sequence (P10275 1-920): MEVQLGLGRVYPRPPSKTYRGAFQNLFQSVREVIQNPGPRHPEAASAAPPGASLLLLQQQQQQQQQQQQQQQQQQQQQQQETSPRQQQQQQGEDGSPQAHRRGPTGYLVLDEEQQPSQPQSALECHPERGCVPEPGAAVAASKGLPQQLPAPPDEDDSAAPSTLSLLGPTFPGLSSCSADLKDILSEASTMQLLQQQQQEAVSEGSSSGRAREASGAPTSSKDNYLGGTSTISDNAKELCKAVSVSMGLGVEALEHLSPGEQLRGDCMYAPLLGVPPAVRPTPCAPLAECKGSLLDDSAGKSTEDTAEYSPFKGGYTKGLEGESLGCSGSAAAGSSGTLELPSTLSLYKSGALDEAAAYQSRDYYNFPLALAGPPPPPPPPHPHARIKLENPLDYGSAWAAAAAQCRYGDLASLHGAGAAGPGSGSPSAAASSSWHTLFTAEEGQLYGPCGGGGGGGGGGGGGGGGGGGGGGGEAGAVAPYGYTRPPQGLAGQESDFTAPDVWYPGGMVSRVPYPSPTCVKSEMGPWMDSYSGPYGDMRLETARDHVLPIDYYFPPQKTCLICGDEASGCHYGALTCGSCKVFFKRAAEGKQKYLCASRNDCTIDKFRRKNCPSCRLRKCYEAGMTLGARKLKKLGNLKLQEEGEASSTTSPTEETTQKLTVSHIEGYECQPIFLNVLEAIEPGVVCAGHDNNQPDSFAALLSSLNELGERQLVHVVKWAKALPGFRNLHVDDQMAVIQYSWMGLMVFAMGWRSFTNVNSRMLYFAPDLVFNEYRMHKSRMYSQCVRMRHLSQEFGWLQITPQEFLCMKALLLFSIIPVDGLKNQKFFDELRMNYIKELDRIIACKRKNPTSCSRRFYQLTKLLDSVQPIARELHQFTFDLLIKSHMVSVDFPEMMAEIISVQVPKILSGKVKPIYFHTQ
Type: cell-based
Experimental: A suitable assay to determine the ability of a ligand to transcriptionally activate androgen receptor (AR) is carried out using mouse myoblastic C2C12 cells. The assay involves transfecting C2C12 cells with a plasmid containing full-length AR along with an AR response element linked to luciferase (2XIDR17). The luminescence read-out at the end of the assay is measured using Victor 3 and is a direct measure of the transcriptional activity. The assay has been validated using the reference compound, BMS-564929, for which EC50 values have been reported in a similar set-up. Other tool compounds that have been used for assay validation are GSK-420A, Andarine, putative Ostarine, and LGD-2226.
C2C12 cells were obtained from ATCC (Cat # CRL-1772) and maintained in DMEM modified to contain 4 mM L-glutamine, 4.5 g/L glucose, 1 mM sodium pyruvate and 1.5 g/L sodium bicarbonate and 10% FBS.
AR-FL in pcDNA 3.1(+) and 2XIDR17 in pGL4.26 plasmids prepared using Genelute plasmid miniprep kit from Sigma Cat # PLED35
• C2C12 cells were seeded in a 96-well plate in DMEM (Dulbecco's Modified Eagle Medium) without phenol red and containing 10% CS-FBS (Charcoal-stripped Fetal Bovine Serum) at 8000 cells/well. • The next day, cells were transfected with an equimolar ratio of (Androgen Receptor-Full length) AR-FL and 2XIDR17-Luciferase at a total plasmid concentration of 200 ng/well using Lipofectamine 2000 following manufacturer's protocol. • For the transfection, 83 ng of AR-FL and 117 ng of 2XIDR17-Luciferase were in 12.5 μl of OptiMEM—Mix A. 0.4 μl of Lipofectamine 2000 was added to 12.5 μl of OptiMEM and incubated for 5 min at room temperature—Mix B. The two mixes A and B were mixed and incubated at room temperature for an additional fifteen minutes. An additional 50 μl of OptiMEM was added, gently mixed and this mixture was added to the cells in the 96-well plate. The above quantities are requirements per well of a 96-well plate. Master mixes were made for the entire plate, with proportional quantity of reagents being used. • 5 h after transfection, compounds were added to the wells in DMEM without phenol red and containing 10% CS-FBS, maintaining a final DMSO concentration of 0.5%. A typical dose response curve starts at 10 μM and includes a 7-point, log dilution, done in triplicates. • After overnight incubation with the compounds, 100 ul of working solution of Steadyglow reagent was added to the wells. • The plates were placed in a shaker for 15 min at the end of which the lysate containing luciferase was transferred to a white flat-bottom plate and read under a luminescence setting in Victor. • Background subtracted counts (Luminescence from DMSO control wells is considered the background) are used to calculate percentage activity, expressed relative to activity with 1 μM (Dihydrotestosterone) DHT (at least two sets of triplicates for 1 μM DHT are included per plate). Data Fitting: • The EC50 curves for the compounds for 8 compound concentrations were fitted by the respective function using non-linear least-squares regression in Graphpad Prism 4.0 (Graphpad Software, San Diego, Calif., USA).

Row | Structure (SMILES) | EC50 [nM]
1 | Cc1c(C2=NN3CC[C@H](O)[C@H]3[C@@H]2OCCF)ccc(C#N)c1Cl [Example 16, 2-chloro-4-((3S,3aS,4S)-3-(2-fluoroethoxy)-4-hydroxy-3a,4,5,6-tetrahydro-3H-pyrrolo[1,2-b]pyrazol-2-yl)-3-methylbenzonitrile] | 2
2 | COCCCO[C@@H]1C(c2ccc(C#N)c(Cl)c2C)=NN2C[C@H](O)C[C@@H]12 [Example 29] | 40
3 | Cc1c(C2=NN3CC[C@@H](F)[C@H]3[C@@H]2OCCF)ccc(C#N)c1Cl [Example 23, 2-chloro-4-((3S,3aR,4R)-4-fluoro-3-(2-fluoroethoxy)-3a,4,5,6-tetrahydro-3H-pyrrolo[1,2-b]pyrazol-2-yl)-3-methylbenzonitrile] | 0.41
4 | CO[C@@H]1C(c2ccc(C#N)c(Cl)c2C)=NN2C[C@H](O)C[C@@H]12 [Example 8, 2-chloro-4-((3S,3aS,5R)-5-hydroxy-3-methoxy-3a,4,5,6-tetrahydro-3H-pyrrolo[1,2-b]pyrazol-2-yl)-3-methylbenzonitrile] | 6.7
5 | CO[C@@H]1C(c2ccc(C#N)c(Cl)c2C)=NN2CC[C@H](F)[C@@H]12 [Example 13, 2-chloro-4-((3S,3aR,4S)-4-fluoro-3-methoxy-3a,4,5,6-tetrahydro-3H-pyrrolo[1,2-b]pyrazol-2-yl)-3-methylbenzonitrile] | 1.3
6 | CO[C@@H]1C(c2ccc(C#N)c(Cl)c2C)=NN2CC[C@@H](O)[C@@H]12 [Example 2, 2-chloro-4-((3S,3aS,4R)-4-hydroxy-3-methoxy-3a,4,5,6-tetrahydro-3H-pyrrolo[1,2-b]pyrazol-2-yl)-3-methylbenzonitrile] | 0.6
7 | CO[C@@H]1C(c2ccc(C#N)c(Cl)c2C)=NN2C[C@@H](F)C[C@@H]12 [Example 14, 2-chloro-4-((3S,3aS,5S)-5-fluoro-3-methoxy-3a,4,5,6-tetrahydro-3H-pyrrolo[1,2-b]pyrazol-2-yl)-3-methylbenzonitrile] | 1.7
8 | CO[C@@H]1C(c2ccc(C#N)c(Cl)c2C)=NN2C[C@H](O)[C@H](O)[C@@H]12 [Example 25, 2-chloro-4-((3S,3aS,4R,5S)-4,5-dihydroxy-3-methoxy-3a,4,5,6-tetrahydro-3H-pyrrolo[1,2-b]pyrazol-2-yl)-3-methylbenzonitrile] | 51.2
9 | CCO[C@@H]1C(c2ccc(C#N)c(Cl)c2C)=NN2CC[C@@H](O)[C@@H]12 [Example 6, 2-chloro-4-((3S,3aS,4R)-3-ethoxy-4-hydroxy-3a,4,5,6-tetrahydro-3H-pyrrolo[1,2-b]pyrazol-2-yl)-3-methylbenzonitrile] | 0.6
10 | CO[C@@H]1C(c2ccc(C#N)c(Cl)c2C)=NN2C[C@@H](I)C[C@@H]12 [Example 19, 2-chloro-4-((3S,3aS,5S)-5-iodo-3-methoxy-3a,4,5,6-tetrahydro-3H-pyrrolo[1,2-b]pyrazol-2-yl)-3-methylbenzonitrile] | 7
11 | CO[C@@H]1C(c2ccc(C#N)c(Cl)c2C)=NN2CC(F)(F)C[C@@H]12 [Example 15, 2-chloro-4-((3S,3aS)-5,5-difluoro-3-methoxy-3a,4,5,6-tetrahydro-3H-pyrrolo[1,2-b]pyrazol-2-yl)-3-methylbenzonitrile] | 0.1
12 | CO[C@@H]1C(c2ccc(C#N)c(Cl)c2C)=NN2CC[C@@H](F)[C@@H]12 [Example 12, 2-chloro-4-((3S,3aR,4R)-4-fluoro-3-methoxy-3a,4,5,6-tetrahydro-3H-pyrrolo[1,2-b]pyrazol-2-yl)-3-methylbenzonitrile] | 0.1
13 | COCCO[C@@H]1C(c2ccc(C#N)c(Cl)c2C)=NN2C[C@@H](F)C[C@@H]12 [Example 27] | 65.8
14 | CO[C@@H]1C(c2ccc(C#N)c(Cl)c2C)=NN2CC(=O)C[C@@H]12 [Example 9, 2-chloro-4-((3S,3aS)-3-methoxy-5-oxo-3a,4,5,6-tetrahydro-3H-pyrrolo[1,2-b]pyrazol-2-yl)-3-methylbenzonitrile] | 10.5
15 | Cc1c(C2=NN3CC[C@H](O)[C@H]3[C@@H]2O)ccc(C#N)c1Cl [Example 3, 2-chloro-4-((3S,3aS,4S)-3,4-dihydroxy-3a,4,5,6-tetrahydro-3H-pyrrolo[1,2-b]pyrazol-2-yl)-3-methylbenzonitrile] | 821
16 | Cc1c(C2=NN3CC[C@H](O)[C@H]3[C@@H]2OC(C)C)ccc(C#N)c1Cl [Example 7, 2-chloro-4-((3S,3aS,4S)-4-hydroxy-3-isopropoxy-3a,4,5,6-tetrahydro-3H-pyrrolo[1,2-b]pyrazol-2-yl)-3-methylbenzonitrile] | 4
17 | COCCO[C@@H]1C(c2ccc(C#N)c(Cl)c2C)=NN2CC(=O)C[C@@H]12 [Example 28] | 175

Same assay, conditions: 100 nM compound; activity relative to 1 μM DHT

Row | Structure (SMILES) | % Biological activity (C2C12 cell) 100 nM [%]
18 | Cc1c(C2=NN3CC[C@@H](O)[C@H]3[C@@H]2O)ccc(C#N)c1Cl [Example 4, 2-chloro-4-((3S,3aS,4R)-3,4-dihydroxy-3a,4,5,6-tetrahydro-3H-pyrrolo[1,2-b]pyrazol-2-yl)-3-methylbenzonitrile] | 5
19 | Cc1c(C2=NN3CC[C@H](O)[C@H]3[C@@H]2OCC2CC2)ccc(C#N)c1Cl [Example 17, 2-chloro-4-((3S,3aS,4S)-3-(cyclopropylmethoxy)-4-hydroxy-3a,4,5,6-tetrahydro-3H-pyrrolo[1,2-b]pyrazol-2-yl)-3-methylbenzonitrile] | 91
20 | Cc1c(C2=NN3C[C@H](O)C[C@H]3[C@@H]2O)ccc(C#N)c1Cl [Example 10, 2-chloro-4-((3S,3aS,5R)-3,5-dihydroxy-3a,4,5,6-tetrahydro-3H-pyrrolo[1,2-b]pyrazol-2-yl)-3-methylbenzonitrile] | 4

Same assay, conditions: 5 μM compound; activity relative to 1 μM DHT

Row | Structure (SMILES) | % Biological activity (C2C12 cell) 5 μM [%]
21 | Cc1c(C2=NN3CC[C@@H](O)[C@H]3[C@@H]2O)ccc(C#N)c1Cl [Example 4, 2-chloro-4-((3S,3aS,4R)-3,4-dihydroxy-3a,4,5,6-tetrahydro-3H-pyrrolo[1,2-b]pyrazol-2-yl)-3-methylbenzonitrile] | 32
22 | Cc1c(C2=NN3CC[C@H](O)[C@H]3[C@@H]2OCC2CC2)ccc(C#N)c1Cl [Example 17, 2-chloro-4-((3S,3aS,4S)-3-(cyclopropylmethoxy)-4-hydroxy-3a,4,5,6-tetrahydro-3H-pyrrolo[1,2-b]pyrazol-2-yl)-3-methylbenzonitrile] | 100
23 | Cc1c(C2=NN3C[C@H](O)C[C@H]3[C@@H]2O)ccc(C#N)c1Cl [Example 10, 2-chloro-4-((3S,3aS,5R)-3,5-dihydroxy-3a,4,5,6-tetrahydro-3H-pyrrolo[1,2-b]pyrazol-2-yl)-3-methylbenzonitrile] | 2

Same assay, conditions: mouse myoblastic C2C12 cells transfected with AR-FL and 2XIDR17-luciferase; read-out: Biological activity (C2C12 cell) EC50

Row | Structure (SMILES) | EC50 [nM]
24 | COCCO[C@@H]1C(c2ccc(C#N)c(Cl)c2C)=NN2CC[C@H](O)[C@@H]12 [Example 21, 2-chloro-4-((3S,3aS,4S)-4-hydroxy-3-(2-methoxyethoxy)-3a,4,5,6-tetrahydro-3H-pyrrolo[1,2-b]pyrazol-2-yl)-3-methylbenzonitrile] | 0.93
25 | CO[C@H]1CCN2N=C(c3ccc(C#N)c(Cl)c3C)[C@@H](OC)[C@H]12 [Example 20, 2-chloro-4-((3S,3aS,4S)-3,4-dimethoxy-3a,4,5,6-tetrahydro-3H-pyrrolo[1,2-b]pyrazol-2-yl)-3-methylbenzonitrile] | 7.1
